Measured values reported in patent EP1313763B1, “METHOD FOR THE EXTRACTION AND THE USE OF ANTI[…] PEPTIDES FOR TREATING INFECTIOUS DISEASES” (IPF Pharmaceuticals GmbH, priority 2000, dated 2001).

Experiments:
[1] = system: Saccharomyces cerevisiae ATCC 9763; assay: Minimal inhibitory concentration (MIC) determination; details: incubation 18 ± 2 h, chemically synthesized peptides
Protocol: (§2) Die antimikrobielle Aktivität der erfindungsgemäßen Peptide wurde unter Anwendung der Bestimmung der minimalen Hemmstoffkonzentration (MIC) gegen verschiedene Keime, wie Gram-positive und Gram-negative Bakterien und Hefen, untersucht. Die minimale Hemmstoffkonzentration bezeichnet die Peptidkonzentration, die minimal erforderlich ist, um das Wachstum von Mikroorganismen nach einer Inkubationszeit von 18 ± 2 h vollständig zu hemmen.

[2] = system: Bacillus subtilis ATCC 6051; assay: as above; details: incubation 18 ± 2 h, chemically synthesized peptides
Protocol: as §2

E. coli = assay: Radial diffusion inhibition test of HPLC fractions; format: cell-based, Escherichia coli; details: pure peptide in purified HPLC fraction from tissue extract; E. coli in agarose, 37 °C, 16 h
Source text: (§1) Für die Reinigung von antimikrobiellen Peptiden aus Plazentaextrakt können verschiedene HPLC Trennverfahren kombiniert werden, um eine möglichst reine Darstellung über eine optimale Trennung zu erzielen und inaktive, unerwünschte Bestandteile abzutrennen. Die jeweiligen Proben, die nach jedem Trennungsschritt entstehen, werden auf ihre antimikrobielle Aktivität gegen Escherichla coli mit Hilfe des Radial-DifFusions-Hemmtests untersucht (siehe Beispiel 3). Notwendig für die Reinigung ist die Kombination von mindestens zwei Reverse Phase Chromatographieschritten und der Einsatz einer Kationenaustausch-HPLC-Trennung. In dem Biotest sollte die jeweilige Probe salzarm eingesetzt werden, um ein möglichst optimales Screeningergebnis zu erhalten.
as §1, with “Thymusextrakt” for “Plazentaextrakt”, “Escherichia” for “Escherichla”, “Radial-Diffusions-Hemmtests” for “Radial-DifFusions-Hemmtests”, “2). Empfehlenswert” for “3). Notwendig”, “In dem Biotest sollte die jeweilige Probe salzarm eingesetzt werden, um ein möglichst optimales Screeningergebnis zu erhalten.” left out

[3] = system: Pseudomonas aeruginosa clinical isolate; assay: Minimal inhibitory concentration (MIC) determination; details: incubation 18 ± 2 h, chemically synthesized peptides
Protocol: as §2

[4] = system: Escherichia coli BL21 (DE3); assay: as above; details: incubation 18 ± 2 h, chemically synthesized peptides
Protocol: as §2

[5] = system: Staphylococcus carnosus TM 300; assay: as above; details: incubation 18 ± 2 h, chemically synthesized peptides
Protocol: as §2

[6] = system: Micrococcus luteus ATCC 9341; assay: as above; details: incubation 18 ± 2 h, chemically synthesized peptides
Protocol: as §2

[7] = system: Klebsiella pneumoniae ATCC 10031; assay: as above; details: incubation 18 ± 2 h, chemically synthesized peptides
Protocol: as §2

[8] = system: Escherichia coli ATTC 25922; assay: as above; details: incubation 18 ± 2 h, chemically synthesized peptides
Source text: (§3) Dabei werden als Testmikroorganismen entweder Staphylococcus aureus oder Escherichia coli verwendet, je nachdem, bei welchem Mikroorganismus das Peptid bessere Wirksamkeit hat. Die Bakterien sind wie folgt charakterisiert: • Staphylococcous aureus: Gram-positive Kokken, ATCC 25923 • Escherichia coll: Gram-negative Stäbchen, ATCC 25922
(§4) Die antimikrobielle Aktivität der erfindungsgemäßen Peptide wurde unter Anwendung der Bestimmung der minimalen Hemmstoffkonzentration (MIC) gegen verschiedene Keime, wie Gram-positive und Gram-negative Bakterien und Hefen, untersucht. Die minimale Hemmstoffkonzentration bezeichnet die Peptidkonzentration, die minimal erforderlich ist, um das Wachstum von Mikroorganismen nach einer Inkubationszeit von 18 ± 2 h vollständig zu hemmen. Diese Quantifizierung der antimikrobiellen Aktivität ist mit chemisch synthetisierten Peptiden (Peptidsequenzen 1-5) gegen nicht pathogene sowie human pathogene Erreger durchgeführt worden.

[9] = system: Staphylococcus aureus ATTC 25923; assay: as above; details: incubation 18 ± 2 h, chemically synthesized peptides
Source text: as §3, §4

| Substance | minimale Hemmkonzentration (MIC) [1] [µg/mL] | minimale Hemmkonzentration (MIC) [2] [µg/mL] | antimikrobielle Aktivität (E. coli) | minimale Hemmkonzentration (MIC) [3] [µg/mL] | minimale Hemmkonzentration (MIC) [4] [µg/mL] | minimale Hemmkonzentration (MIC) [5] [µg/mL] | minimale Hemmkonzentration (MIC) [6] [µg/mL] | minimale Hemmkonzentration (MIC) [7] [µg/mL] | minimale Hemmkonzentration (MIC) [8] [µg/mL] | minimale Hemmkonzentration (MIC) [9] [µg/mL] |
| --- | --- | --- | --- | --- | --- | --- | --- | --- | --- | --- |
| hGAPDH-1-31 [Peptide 2] | 100 | 7.8 | antimikrobiell wirksame | 31.25 | 7.8 | 12.5 | 31.25 | – | – | – |
| hHEM-g-130-146 [Peptide 1] | 100 | 100 | antimikrobiell wirksame | > 200 | 100 | 100 | 200 | 300 | 200 | 200 |
